# Experimental data taken from the supplement of paper PMC10307832.
# Assays:
# Test in all cases: relative viability (nuclei count vs DMSO), 5 days (fraction); higher = more cells survive
# Sorafenib + Luminespib = compound: CNC(=O)c1cc(Oc2ccc(NC(=O)Nc3ccc(Cl)c(C(F)(F)F)c3)cc2)ccn1 [Sorafenib] + CCNC(=O)c1noc(-c2cc(C(C)C)c(O)cc2O)c1-c1ccc(CN2CCOCC2)cc1 [Luminespib] (partner 0.01 µM)
# Procedure, shortened: (§1)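 Dosing by pin tool came one day after lung cancer cell lines were seeded in 1536-well plates, using either one drug or a fixed anchor-drug dose plus five library-drug doses (not always all listed) in √10 steps. After 5 days, nuclei were counted on 4× images. Relative viability is treated-well nuclei count divided by vehicle-well nuclei count, and values are medians of duplicate plates.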
# Sorafenib + OSI-027 = compound: CNC(=O)c1cc(Oc2ccc(NC(=O)Nc3ccc(Cl)c(C(F)(F)F)c3)cc2)ccn1 [Sorafenib] + COc1cccc2cc(-c3nc([C@H]4CC[C@H](C(=O)O)CC4)n4ncnc(N)c34)[nH]c12 [OSI-027] (partner 0.5 µM)
# Procedure, shortened: as §1
# Sorafenib + Pictilisib = compound: CNC(=O)c1cc(Oc2ccc(NC(=O)Nc3ccc(Cl)c(C(F)(F)F)c3)cc2)ccn1 [Sorafenib] + CS(=O)(=O)N1CCN(Cc2cc3nc(-c4cccc5[nH]ncc45)nc(N4CCOCC4)c3s2)CC1 [Pictilisib] (partner 1 µM)
# Procedure, shortened: as §1
# Sorafenib + Phenformin = compound: CNC(=O)c1cc(Oc2ccc(NC(=O)Nc3ccc(Cl)c(C(F)(F)F)c3)cc2)ccn1 [Sorafenib] + N=C(N)NC(=N)NCCc1ccccc1 [Phenformin] (partner 250 µM)
# Procedure, shortened: as §1
# Sorafenib + Olaparib = compound: CNC(=O)c1cc(Oc2ccc(NC(=O)Nc3ccc(Cl)c(C(F)(F)F)c3)cc2)ccn1 [Sorafenib] + O=C(c1cc(Cc2n[nH]c(=O)c3ccccc23)ccc1F)N1CCN(C(=O)C2CC2)CC1 [Olaparib] (partner 8 µM)
# Procedure, shortened: as §1
cell line,measurement,setting,value
NCI-H460,relative viability,Sorafenib + Luminespib; first compound 0.08 µM,0.0329
same,relative viability,Sorafenib + Luminespib; first compound 0.253 µM,0.0278
same,relative viability,Sorafenib + Luminespib; first compound 2.53 µM,0.0236
same,relative viability,Sorafenib + Luminespib; first compound 8 µM,0.0147
same,relative viability,Sorafenib + OSI-027; first compound 0.08 µM,0.761
same,relative viability,Sorafenib + OSI-027; first compound 0.253 µM,0.596
same,relative viability,Sorafenib + OSI-027; first compound 2.53 µM,0.459
same,relative viability,Sorafenib + OSI-027; first compound 8 µM,0.0191
same,relative viability,Sorafenib + Pictilisib; first compound 0.253 µM,0.442
same,relative viability,Sorafenib + Pictilisib; first compound 2.53 µM,0.51
same,relative viability,Sorafenib + Pictilisib; first compound 8 µM,0.3
same,relative viability,Sorafenib + Phenformin; first compound 0.08 µM,0.528
same,relative viability,Sorafenib + Phenformin; first compound 0.253 µM,0.495
same,relative viability,Sorafenib + Phenformin; first compound 2.53 µM,0.462
same,relative viability,Sorafenib + Phenformin; first compound 8 µM,0.046
same,relative viability,Sorafenib + Olaparib; first compound 0.08 µM,0.399
same,relative viability,Sorafenib + Olaparib; first compound 0.253 µM,0.335
same,relative viability,Sorafenib + Olaparib; first compound 2.53 µM,0.345
same,relative viability,Sorafenib + Olaparib; first compound 8 µM,0.324
NCI-H520,relative viability,Sorafenib + Luminespib; first compound 0.08 µM,0.21
same,relative viability,Sorafenib + Luminespib; first compound 0.253 µM,0.216
same,relative viability,Sorafenib + Luminespib; first compound 2.53 µM,0.232
same,relative viability,Sorafenib + Luminespib; first compound 8 µM,0.218
same,relative viability,Sorafenib + OSI-027; first compound 0.08 µM,0.352
same,relative viability,Sorafenib + OSI-027; first compound 0.253 µM,0.254
same,relative viability,Sorafenib + OSI-027; first compound 2.53 µM,0.246
same,relative viability,Sorafenib + OSI-027; first compound 8 µM,0.246
same,relative viability,Sorafenib + Pictilisib; first compound 0.08 µM,0.337
same,relative viability,Sorafenib + Pictilisib; first compound 0.253 µM,0.322
same,relative viability,Sorafenib + Pictilisib; first compound 2.53 µM,0.307
same,relative viability,Sorafenib + Pictilisib; first compound 8 µM,0.188
same,relative viability,Sorafenib + Phenformin; first compound 0.08 µM,0.673
same,relative viability,Sorafenib + Phenformin; first compound 0.253 µM,0.316
same,relative viability,Sorafenib + Phenformin; first compound 2.53 µM,0.574
same,relative viability,Sorafenib + Phenformin; first compound 8 µM,0.253
same,relative viability,Sorafenib + Olaparib; first compound 0.08 µM,0.356
same,relative viability,Sorafenib + Olaparib; first compound 0.253 µM,0.281
same,relative viability,Sorafenib + Olaparib; first compound 2.53 µM,0.313
same,relative viability,Sorafenib + Olaparib; first compound 8 µM,0.126
NCI-H596,relative viability,Sorafenib + Luminespib; first compound 0.08 µM,0.889
same,relative viability,Sorafenib + Luminespib; first compound 0.253 µM,1.04
same,relative viability,Sorafenib + Luminespib; first compound 2.53 µM,0.977
same,relative viability,Sorafenib + Luminespib; first compound 8 µM,0.911
same,relative viability,Sorafenib + OSI-027; first compound 0.08 µM,0.732
same,relative viability,Sorafenib + OSI-027; first compound 0.253 µM,0.664
same,relative viability,Sorafenib + OSI-027; first compound 2.53 µM,0.671
same,relative viability,Sorafenib + OSI-027; first compound 8 µM,0.447
same,relative viability,Sorafenib + Pictilisib; first compound 0.08 µM,0.354
same,relative viability,Sorafenib + Pictilisib; first compound 0.253 µM,0.436
same,relative viability,Sorafenib + Pictilisib; first compound 2.53 µM,0.374
same,relative viability,Sorafenib + Pictilisib; first compound 8 µM,0.372
same,relative viability,Sorafenib + Phenformin; first compound 0.08 µM,0.787
same,relative viability,Sorafenib + Phenformin; first compound 0.253 µM,0.587
same,relative viability,Sorafenib + Phenformin; first compound 2.53 µM,0.665
same,relative viability,Sorafenib + Phenformin; first compound 8 µM,0.86
same,relative viability,Sorafenib + Olaparib; first compound 0.08 µM,0.773
same,relative viability,Sorafenib + Olaparib; first compound 0.253 µM,0.73
same,relative viability,Sorafenib + Olaparib; first compound 2.53 µM,0.751
same,relative viability,Sorafenib + Olaparib; first compound 8 µM,0.79
NCI-H647,relative viability,Sorafenib + Luminespib; first compound 0.08 µM,0.182
same,relative viability,Sorafenib + Luminespib; first compound 0.253 µM,0.0896
same,relative viability,Sorafenib + Luminespib; first compound 2.53 µM,0.148
same,relative viability,Sorafenib + Luminespib; first compound 8 µM,0.15
same,relative viability,Sorafenib + OSI-027; first compound 0.08 µM,0.62
same,relative viability,Sorafenib + OSI-027; first compound 0.253 µM,0.634
same,relative viability,Sorafenib + OSI-027; first compound 2.53 µM,0.506
same,relative viability,Sorafenib + OSI-027; first compound 8 µM,0.427
same,relative viability,Sorafenib + Pictilisib; first compound 0.08 µM,0.544
same,relative viability,Sorafenib + Pictilisib; first compound 2.53 µM,0.475
same,relative viability,Sorafenib + Pictilisib; first compound 8 µM,0.374
same,relative viability,Sorafenib + Phenformin; first compound 0.08 µM,0.636
same,relative viability,Sorafenib + Phenformin; first compound 0.253 µM,0.495
same,relative viability,Sorafenib + Phenformin; first compound 2.53 µM,0.454
same,relative viability,Sorafenib + Phenformin; first compound 8 µM,0.198
same,relative viability,Sorafenib + Olaparib; first compound 0.08 µM,0.568
same,relative viability,Sorafenib + Olaparib; first compound 0.253 µM,0.524
same,relative viability,Sorafenib + Olaparib; first compound 2.53 µM,0.356
same,relative viability,Sorafenib + Olaparib; first compound 8 µM,0.0229
NCI-H650,relative viability,Sorafenib + Luminespib; first compound 0.08 µM,0.809
same,relative viability,Sorafenib + Luminespib; first compound 0.253 µM,0.639
same,relative viability,Sorafenib + Luminespib; first compound 2.53 µM,0.605
same,relative viability,Sorafenib + Luminespib; first compound 8 µM,0.677
same,relative viability,Sorafenib + OSI-027; first compound 0.08 µM,0.541
same,relative viability,Sorafenib + OSI-027; first compound 0.253 µM,0.363
same,relative viability,Sorafenib + OSI-027; first compound 2.53 µM,0.451
same,relative viability,Sorafenib + OSI-027; first compound 8 µM,0.504
same,relative viability,Sorafenib + Pictilisib; first compound 0.08 µM,0.911
same,relative viability,Sorafenib + Pictilisib; first compound 0.253 µM,0.751
same,relative viability,Sorafenib + Pictilisib; first compound 2.53 µM,0.696
same,relative viability,Sorafenib + Pictilisib; first compound 8 µM,0.746
same,relative viability,Sorafenib + Phenformin; first compound 0.08 µM,0.45
same,relative viability,Sorafenib + Phenformin; first compound 0.253 µM,0.399
same,relative viability,Sorafenib + Phenformin; first compound 2.53 µM,0.461
same,relative viability,Sorafenib + Phenformin; first compound 8 µM,0.428
same,relative viability,Sorafenib + Olaparib; first compound 0.08 µM,0.377
same,relative viability,Sorafenib + Olaparib; first compound 0.253 µM,0.312
same,relative viability,Sorafenib + Olaparib; first compound 2.53 µM,0.295
same,relative viability,Sorafenib + Olaparib; first compound 8 µM,0.227
NCI-H661,relative viability,Sorafenib + Luminespib; first compound 0.08 µM,0.931
same,relative viability,Sorafenib + Luminespib; first compound 0.253 µM,0.928
same,relative viability,Sorafenib + Luminespib; first compound 2.53 µM,0.822
same,relative viability,Sorafenib + Luminespib; first compound 8 µM,0.293
same,relative viability,Sorafenib + OSI-027; first compound 0.08 µM,0.759
same,relative viability,Sorafenib + OSI-027; first compound 0.253 µM,0.73
same,relative viability,Sorafenib + OSI-027; first compound 2.53 µM,0.655
same,relative viability,Sorafenib + OSI-027; first compound 8 µM,0.483
same,relative viability,Sorafenib + Pictilisib; first compound 0.08 µM,0.456
same,relative viability,Sorafenib + Pictilisib; first compound 0.253 µM,0.397
same,relative viability,Sorafenib + Pictilisib; first compound 2.53 µM,0.422
same,relative viability,Sorafenib + Pictilisib; first compound 8 µM,0.286
same,relative viability,Sorafenib + Phenformin; first compound 0.08 µM,0.279
same,relative viability,Sorafenib + Phenformin; first compound 0.253 µM,0.143
same,relative viability,Sorafenib + Phenformin; first compound 2.53 µM,0.289
same,relative viability,Sorafenib + Phenformin; first compound 8 µM,0.215
same,relative viability,Sorafenib + Olaparib; first compound 0.08 µM,0.726
same,relative viability,Sorafenib + Olaparib; first compound 0.253 µM,0.764
same,relative viability,Sorafenib + Olaparib; first compound 2.53 µM,0.679
same,relative viability,Sorafenib + Olaparib; first compound 8 µM,0.444
NCI-H727,relative viability,Sorafenib + Luminespib; first compound 0.08 µM,0.528
same,relative viability,Sorafenib + Luminespib; first compound 0.253 µM,0.344
same,relative viability,Sorafenib + Luminespib; first compound 2.53 µM,0.501
same,relative viability,Sorafenib + Luminespib; first compound 8 µM,0.221
same,relative viability,Sorafenib + OSI-027; first compound 0.08 µM,0.688
same,relative viability,Sorafenib + OSI-027; first compound 0.253 µM,0.542
same,relative viability,Sorafenib + OSI-027; first compound 2.53 µM,0.619
same,relative viability,Sorafenib + OSI-027; first compound 8 µM,0.508
same,relative viability,Sorafenib + Pictilisib; first compound 0.08 µM,0.332
same,relative viability,Sorafenib + Pictilisib; first compound 0.253 µM,0.337
same,relative viability,Sorafenib + Pictilisib; first compound 2.53 µM,0.257
same,relative viability,Sorafenib + Pictilisib; first compound 8 µM,0.311
same,relative viability,Sorafenib + Phenformin; first compound 0.08 µM,0.634
same,relative viability,Sorafenib + Phenformin; first compound 0.253 µM,0.416
same,relative viability,Sorafenib + Phenformin; first compound 2.53 µM,0.439
same,relative viability,Sorafenib + Phenformin; first compound 8 µM,0.507
same,relative viability,Sorafenib + Olaparib; first compound 0.08 µM,0.826
same,relative viability,Sorafenib + Olaparib; first compound 0.253 µM,0.666
same,relative viability,Sorafenib + Olaparib; first compound 2.53 µM,0.693
same,relative viability,Sorafenib + Olaparib; first compound 8 µM,0.659
NCI-H838,relative viability,Sorafenib + Luminespib; first compound 0.08 µM,0.346
same,relative viability,Sorafenib + Luminespib; first compound 0.253 µM,0.33
same,relative viability,Sorafenib + Luminespib; first compound 2.53 µM,0.402
same,relative viability,Sorafenib + Luminespib; first compound 8 µM,0.243
same,relative viability,Sorafenib + OSI-027; first compound 0.08 µM,0.52
same,relative viability,Sorafenib + OSI-027; first compound 0.253 µM,0.438
same,relative viability,Sorafenib + OSI-027; first compound 2.53 µM,0.615
same,relative viability,Sorafenib + OSI-027; first compound 8 µM,0.539
same,relative viability,Sorafenib + Pictilisib; first compound 0.08 µM,0.516
same,relative viability,Sorafenib + Pictilisib; first compound 0.253 µM,0.412
same,relative viability,Sorafenib + Pictilisib; first compound 2.53 µM,0.77
same,relative viability,Sorafenib + Pictilisib; first compound 8 µM,0.38
same,relative viability,Sorafenib + Phenformin; first compound 0.08 µM,0.749
same,relative viability,Sorafenib + Phenformin; first compound 2.53 µM,0.948
same,relative viability,Sorafenib + Phenformin; first compound 8 µM,0.388
same,relative viability,Sorafenib + Olaparib; first compound 0.08 µM,0.776
same,relative viability,Sorafenib + Olaparib; first compound 0.253 µM,0.744
same,relative viability,Sorafenib + Olaparib; first compound 2.53 µM,0.735
same,relative viability,Sorafenib + Olaparib; first compound 8 µM,0.215
